US6664250B2, “Lactam derivatives as antiarrhythmic agents” (Bristol-Myers Squibb Co., priority 1998, dated 2003)
Counter-ions that a name gives are not always drawn.

| SMILES | melting point |
| --- | --- |
| COc1ccc2c(c1)CCN(CCN1CCC(c3ccccc3)CC1)C2=O (as salt: hydrochloride) [Example 1, 3,4-Dihydro-6-methoxy-2-[2-(4-phenyl-1-piperidinyl)ethyl]-1(2H)-isoquinolinone, Monohydrochloride] | 232 to 235 °C |
| OCC1c2ccc(OCc3ccccc3)cc2CCN1CCN1CCC(c2ccccc2)CC1 (stereo not shown) (as salt: hydrochloride) | 205 to 210 °C (dec.) |
| CC(C)COc1ccc2c(c1)C(=O)NC(CC(C)(C)C)CC2 (stereo not shown) [Example 27] | 148 to 149 °C |
| CCCOc1ccc2c(c1)C(=O)NC(CC(C)(C)C)CC2 (stereo not shown) [Example 22] | 132 to 133 °C |
| COc1ccc2c(c1)C(=O)NC(CC(C)(C)C)C2 (stereo not shown) [Example 38] | 113 to 114 °C |
| CCOc1ccc2c(c1)C(=O)NC(CC(C)(C)C)CC2 (stereo not shown) [Example 21] | 159 to 160 °C |
| CC(C)Oc1ccc2c(c1)C(=O)NC(CC(C)(C)C)C2 (stereo not shown) [Example 37] | 135 to 136 °C |
| CC(C)Oc1ccc2c(c1)C(=O)NC(CC(C)(C)C)CC2 (stereo not shown) [Example 29] | 113 to 114 °C |
| CCCOc1ccc2c(c1)NC(=O)C(CC(C)(C)C)C2 (stereo not shown) [Example 36] | 109 to 110 °C |
| CC(C)COc1ccc2c(c1)C(=O)NC(CC(C)(C)C)C2 (stereo not shown) [Example 32] | 142 to 143 °C |
| COc1ccc2c(c1)CCC(C)(CN1CCC(c3ccccc3)CC1)NC2=O (stereo not shown) [Example 5, 2,3,4,5-Tetrahydro-7-methoxy-3-methyl-3-[(4-phenyl-1-piperidinyl)methyl]-1H-2-benzazepin-1-one] | 127 to 128 °C |
| CCOc1ccc2c(c1)C(=O)NC(CC(C)(C)C)C2 (stereo not shown) [Example 30] | 129 to 130 °C |
| COc1ccc2c(c1)NC(=O)C(CC(C)(C)C)C2 (stereo not shown) [Example 37] | 118 to 119 °C |
| COc1ccc2c(c1)CC(C)(CN1CCC(c3ccccc3)CC1)NC2=O (stereo not shown) [Example 6] | 93 to 95 °C |
| CCCOc1ccc2c(c1)C(=O)NC(CC(C)(C)C)C2 (stereo not shown) [Example 31] | 88 to 90 °C |

Further lines, results first:

| melting point | SMILES |
| --- | --- |
| 117 to 119 °C | CCCOc1ccc2c(c1)NC(=O)C(CC(C)(C)C)CC2 (stereo not shown) [Example 24] |
| 139 to 140 °C | CC(C)COc1ccc2c(c1)NC(=O)C(CC(C)(C)C)CC2 (stereo not shown) [Example 33] |
| 139 to 140 °C | CC(C)(C)CC1Cc2ccc(OCc3ccccc3)cc2C(=O)N1 (stereo not shown) [Example 25] |
| 150 to 151 °C | CC(C)(C)CC1CCc2ccc(OCc3ccccc3)cc2NC1=O (stereo not shown) [Example 26] |
| 132 to 134 °C | CC(C)Oc1ccc2c(c1)NC(=O)C(CC(C)(C)C)CC2 (stereo not shown) [Example 34] |
| 142 to 143 °C | CC(C)(C)CC1CCc2ccc(OCc3ccccc3)cc2C(=O)N1 (stereo not shown) [Example 23] |
| 136 to 138 °C | CCOc1ccc2c(c1)NC(=O)C(CC(C)(C)C)CC2 (stereo not shown) [Example 28] |
